The source of these data is patent publication US11400035B2, “Preservative mixture” (Symrise AG, priority 2016, dated 2022).

Each structure is given as a SMILES string.

Series [1] in a line: General solubility of 4-isopropyl-3-methyl-phenol in different hydrophilic solvents, storage at 5° C. The following applies: stored at 5° C. In kind it is physicochemical. How it is done:
After preparation, the samples were stored at 5° C. for […]. […] The evaluation of these limits was important for further determination of quantitative solubility improvement. The results are compiled in Table A and 13; the symbols have the following meanings: (++++) fully dissolved; (++) dissolved, but moderate recrystallisation after 48 h at 5° C.; (+) dissolved, but strong recrystallisation after 48 h at 5° C.; (#) not dissolved.

The conditions of series [2]: experimentally determined values from literature; cited from earlier work.
Series [3] in a line: Recrystallization in shampoo, 2 days at 5° C., microscopy. In kind it is physicochemical. Conditions: polarized light, 60 fold, 0.1% 4-isopropyl-3-methyl-phenol. Here is the method:
To investigate the influence on recrystallization in a finished formulation the pre-solutions BC, BC2, BC3 and BC5 (Table 3) in comparison to neat 4-isopropyl-3-methyl phenol were incorporated into a shampoo. (Table 5, trials 1-5) The samples were stored for 2 days at 5° C. and then examined by microscopy.
Production method shampoo: Blend Phase A by stirring slowly with a vane stirrer, stop the process when foaming starts. Swell Ucare Poylmer JR-400 in water by stirring and warming up to 50° C. (The dispersion becomes clear and slightly viscous, when swelling process is completed) Add Phases B, C and D to A one after the other by stirring with a vane stirrer.
Incorporation of 4-isopropyl-3-methyl-phenol (neat) into the finished shampoo: Heat up the shampoo to 70° C., add 4-isopropyl-3-methyl-phenol and stir for 15 min.
Incorporation of solutions BC, BC2, B3 and BC5: Blend 0,45% (corresponds to 0,1% neat 4-isopropyl-3-methyl-phenol) of the different mixtures with the shampoo formula at 22° C. by […]
Microscopic images (Olympus IX 70, polarized light, 60 fold) of shampoo formulae 1-5 after 2 days storage at 5° C. are provided in FIGS. 4A to 4E.

Turning to `O=C1OCC(CO)O1` (stereo not shown) [Glycerin Carbonate], the “Solubility of 4-isopropyl-3-methyl-phenol in different hydrophilic solvents” value (“Solubility … in different hydrophilic solvents” for short) in series [1] (Concentration 5 % b.w.) is recorded as “++”. As for `CCCCC(O)CO` (stereo not shown) [1,2-Hexanediol], in series [2], the “LOG Po/w (exp.)” value is recorded as 0.69. As to `CCOC(C)=O` [Ethyl acetate], the “LOG Po/w (exp.)” value in series [2] is listed as 0.73. As for `C=C(C)[C@H]1CC=C(C)CC1` [Limonene], in series [2], the “LOG Po/w (exp.)” value is reported as 4.38. Turning to `CCOCCOCCO` [Ethoxydiglycol], the “LOG Po/w (exp.)” value in series [2] is listed as −0.54. On to `CC(=O)OCCC(C)C` [Isoamyl acetate], for which, in series [2], the “LOG Po/w (exp.)” value is recorded as 2.25. As for `CC1COC(=O)O1` (stereo not shown) [Propylene Carbonate], the results for the “Solubility … in different hydrophilic solvents” value in series [1] (Concentration 18 % b.w.) and in series [1] (Concentration 29 % b.w.) were “++” and “+”, respectively. On to `CC(C)[C@@H]1CC[C@@H](C)CC1=O` [Menthone], for which the “LOG Po/w (exp.)” value in series [2] is 3.05. In the case of `OCCO` [Ethylene glycol], in series [2], the “LOG Po/w (exp.)” value is −1.36. `O=C(OCCc1ccccc1)c1ccccc1` [Phenethyl Benzoate]: in series [2], the “LOG Po/w (exp.)” value is given as 4.01. `CC(=O)OC1CC(C)CCC1C(C)C` (stereo not shown) [Menthyl acetate]: the “LOG Po/w (exp.)” value in series [2] is reported as 4.00. In the case of `Cc1cc(O)ccc1C(C)C` [4-isopropyl-3-methyl-phenol], in series [3], the Recrystallization in shampoo result is recorded as “recrystallized”. In the case of `CC(O)CO` (stereo not shown) [Propylene Glycol], the “Solubility … in different hydrophilic solvents” value is given as “++” in series [1] (Concentration 22 % b.w.) and “+” in series [1] (Concentration 25 % b.w.).

Regarding `Cc1ccc(C(C)C)cc1O` [Carvacrol], the “LOG Po/w (exp.)” value in series [2] is 3.49. As to `C=C(C)C1CC=C(C)C(=O)C1` (stereo not shown) [Carvone], the “LOG Po/w (exp.)” value in series [2] was 2.71. Consider `OCCOc1ccccc1` [Phenoxyethanol], for which, in series [2], the “LOG Po/w (exp.)” value is listed as 1.16. On to `CCCCCCCCCCCC(=O)OCC` [Ethyl Laurate], for which, in series [2], the “LOG Po/w (exp.)” value is given as 5.71. For the molecule `OCc1ccccc1` [Benzylalkohol], the “Solubility … in different hydrophilic solvents” value in series [1] (Concentration 15 % b.w.) is on record as “++”; in series [1] (Concentration 22 % b.w.), “+”; in series [1] (Concentration 25 % b.w.) it was “+”; in series [1] (Concentration 30 % b.w.) it was “+”; in series [1] (Concentration 34 % b.w.), “+”; in series [1] (Concentration 36 % b.w.), “+”. Also, the “Solubility … in different hydrophilic solvents” value in series [1] (Concentration 40 % b.w.) and in series [1] (Concentration 46 % b.w.) was “+” in each case.

As for `COC(=O)c1ccccc1O` [Methyl salicylate], the “LOG Po/w (exp.)” value in series [2] is on record as 2.55.
